Measurements published in patent US20150328245A1, “Agents for Eliminating Tumour-Initiating Cells” (priority 2012, published 2015).

Key:
DU145 = experiment: In vitro colorimetric cell death assay (MTT); type: cell-based; settings: Homo sapiens, DU-145; DU145, MTT, 48 hours; read-out: IC 50
Description: (§1) It's an in vitro colorimetric assay for assessing cell viability where the cells are grown in Two-dimensional surface.
(§2) An exemplary procedure for the assay follows. Cancer cells and normal cells were plated in a 96 well plate as per predetermined plating efficiency. The plate was incubated for 24 hours in a 5% CO2 atmosphere at 37 degrees Celsius, a range of concentrations of the compounds I-1, I-2 and I-3 as well as cisplatin (known chemotherapeutic agents) were added to the separate wells, the plate was incubated further for 48 hours in a 5% CO2 atmosphere, the plate was centrifuged twice at 3000 rpm for 3 minutes, the supernatant fluid was discarded, 100 uL of 0.5 mg/mL MTT solution was added and the plate was incubated for 4 hours in a 5% CO2 atmosphere at 37 degrees Celsius. The plate was then centrifuged twice at 3000 rpm for 3 minutes, supernatant, was aspirated very carefully, 200 uL DMSO was added to each well to solubilize MTT crystals and mixed well by shaking the plate, the plate was incubated for 10 minutes in a 5% CO2 atmosphere at 37 degrees Celsius, the plate placed on the shaker of an ELISA plate reader and the absorbance at 570 nm was measured, then the percentage of viable cells remaining was calculated by first subtracting the background absorbance then comparing to the absorbance of a non-drug-treated cell sample, and the results were plotted on a graph to determine the IC50 for the compounds and cisplatin.

L 929 = experiment: In vitro colorimetric cell death assay (MTT); type: cell-based; settings: Mus musculus, L929; L 929, MTT, 48 hours; read-out: IC 50
Description: as §1, §2

MCF-7 [1] = experiment: In vitro colorimetric cell death assay (MTT); type: cell-based; settings: Homo sapiens, MCF7; MCF-7, MTT, 48 hours
Description: as §1, §2

[2] = test system: MCF10A (normal breast cell line); experiment: In vitro colorimetric cell death assay (MTT); type: cell-based; settings: 48 hours
Description: as §1, §2

MDAMB231 = experiment: In vitro colorimetric cell death assay (MTT); type: cell-based; settings: Homo sapiens, MDA-MB-231, 48 hours
Description: as §1, §2

MCF-7 [3] = experiment: In vitro soft agar colony forming growth assay; type: cell-based; settings: Homo sapiens, MCF7, 168 h; MCF-7, soft agar, one week
Description: (§3) The Soft Agar Assay for Colony Formation is considered the most stringent assay for detecting malignant transformation of cells. In this assay the cells are cultured in medium with low percentage of agar.
(§4) An exemplary procedure for the assay follows.

PC3 = experiment: In vitro soft agar colony forming growth assay; type: cell-based; settings: Homo sapiens, PC-3, 168 h, one week
Description: as §3, §4

[4] = In vivo maximum tolerated dose assay for compound I-2; set-up: species or system BALB/c mice
Description: In vivo maximum tolerated dose (MTD) toxicity assay was carried out to evaluate the highest dose of a pharmaceutical treatment that will produce the desired effect without unacceptable toxicity. The purpose of administering MTD is to determine whether long-term exposure to a compound might lead to unacceptable adverse health effects in a subject, when the level of exposure is not sufficient to cause premature mortality due to short-term toxic effects.
An exemplary procedure for the in vivo maximum tolerated dose toxicity assay follows. A statistically appropriate number of FEMALE BALB/c MICE were interperitoneally treated with the compound I-2 at three different dose levels 3 mg/kg, 1 mg/kg, and 0.3 mg/kg. Body weight and clinical sign of all the animals were observed daily during dosing and post dosing period.

## COc1cc2c(OC3OCC(OC)C(OC)C3O)c3c(c(-c4ccc5c(c4)OCO5)c2cc1OC)C(=O)OC3 (stereo not drawn) [I-2]
DU145
  IC50: 2.45 µM
L 929
  IC50: 1.38 µM
MCF-7 [1]
  IC50: 0.954 µM
[2]
  IC50: No Activity
MDAMB231
  IC50: 0.331 µM
MCF-7 [3]
  IC50: 0.62 µM
PC3
  IC50: 0.26 µM
[4]; 0.3 mg/kg q7d×4 i.p.
  toxicity finding of the given dose: safe
[4]; 1 mg/kg q7d×4 i.p.
  toxicity finding of the given dose: safe
[4]; 3 mg/kg q7d×4 i.p.
  mortality: more than one mortality
  toxicity finding of the given dose: toxic
[4]; G1 3 mg/kg q7dX4, day 1
  Mean body weight: 2 g
[4]; G1 3 mg/kg q7dX4, day 2
  Mean body weight: 2 g
[4]; G1 3 mg/kg q7dX4, day 3
  Mean body weight: 2 g
[4]; G1 3 mg/kg q7dX4, day 4
  Mean body weight: 2 g
[4]; G1 3 mg/kg q7dX4, day 5
  Mean body weight: 2 g
[4]; G1 3 mg/kg q7dX4, day 6
  Mean body weight: 2 g
[4]; G1 3 mg/kg q7dX4, day 7
  Mean body weight: 2 g
[4]; G1 3 mg/kg q7dX4, day 8
  Mean body weight: 2 g
[4]; G1 3 mg/kg q7dX4, day 9
  Mean body weight: 2 g
[4]; G1 3 mg/kg q7dX4, day 10
  Mean body weight: 2 g
[4]; G1 3 mg/kg q7dX4, day 11
  Mean body weight: 2 g
[4]; G1 3 mg/kg q7dX4, day 12
  Mean body weight: 2 g
[4]; G1 3 mg/kg q7dX4, day 13
  Mean body weight: 2 g
[4]; G1 3 mg/kg q7dX4, day 14
  Mean body weight: 2 g
[4]; G1 3 mg/kg q7dX4, day 15
  Mean body weight: 2 g
[4]; G1 3 mg/kg q7dX4, day 16
  Mean body weight: 2 g
[4]; G1 3 mg/kg q7dX4, day 17
  Mean body weight: 2 g
[4]; G1 3 mg/kg q7dX4, day 18
  Mean body weight: 2 g
[4]; G1 3 mg/kg q7dX4, day 19
  Mean body weight: 2 g
[4]; G1 3 mg/kg q7dX4, day 20
  Mean body weight: 2 g
[4]; G1 3 mg/kg q7dX4, day 21
  Mean body weight: 2 g
[4]; G1 3 mg/kg q7dX4, day 22
  Mean body weight: 2 g
[4]; G1 3 mg/kg q7dX4, day 23
  Mean body weight: 2 g
[4]; G1 3 mg/kg q7dX4, day 24
  Mean body weight: 2 g
[4]; G1 3 mg/kg q7dX4, day 25
  Mean body weight: 2 g
[4]; G1 3 mg/kg q7dX4, day 26
  Mean body weight: 2 g
[4]; G1 3 mg/kg q7dX4, day 27
  Mean body weight: 2 g
[4]; G1 3 mg/kg q7dX4, day 28
  Mean body weight: 2 g
[4]; G1 3 mg/kg q7dX4, day 29
  Mean body weight: 2 g
[4]; G2 1 mg/kg q7dX4, day 1
  Mean body weight: 23. g
[4]; G2 1 mg/kg q7dX4, day 2
  Mean body weight: 23. g
[4]; G2 1 mg/kg q7dX4, day 3
  Mean body weight: 23. g
[4]; G2 1 mg/kg q7dX4, day 4
  Mean body weight: 24. g
[4]; G2 1 mg/kg q7dX4, day 5
  Mean body weight: 24. g
[4]; G2 1 mg/kg q7dX4, day 6
  Mean body weight: 24. g
[4]; G2 1 mg/kg q7dX4, day 7
  Mean body weight: 24. g
[4]; G2 1 mg/kg q7dX4, day 8
  Mean body weight: 24. g
[4]; G2 1 mg/kg q7dX4, day 9
  Mean body weight: 24. g
[4]; G2 1 mg/kg q7dX4, day 10
  Mean body weight: 24. g
[4]; G2 1 mg/kg q7dX4, day 11
  Mean body weight: 24. g
[4]; G2 1 mg/kg q7dX4, day 12
  Mean body weight: 24. g
[4]; G2 1 mg/kg q7dX4, day 13
  Mean body weight: 25. g
[4]; G2 1 mg/kg q7dX4, day 14
  Mean body weight: 24. g
[4]; G2 1 mg/kg q7dX4, day 15
  Mean body weight: 24. g
[4]; G2 1 mg/kg q7dX4, day 16
  Mean body weight: 25. g
[4]; G2 1 mg/kg q7dX4, day 17
  Mean body weight: 25. g
[4]; G2 1 mg/kg q7dX4, day 18
  Mean body weight: 25. g
[4]; G2 1 mg/kg q7dX4, day 19
  Mean body weight: 25. g
[4]; G2 1 mg/kg q7dX4, day 20
  Mean body weight: 25. g
[4]; G2 1 mg/kg q7dX4, day 21
  Mean body weight: 25. g
[4]; G2 1 mg/kg q7dX4, day 22
  Mean body weight: 25. g
[4]; G2 1 mg/kg q7dX4, day 23
  Mean body weight: 25. g
[4]; G2 1 mg/kg q7dX4, day 24
  Mean body weight: 25. g
[4]; G2 1 mg/kg q7dX4, day 25
  Mean body weight: 25. g
[4]; G2 1 mg/kg q7dX4, day 26
  Mean body weight: 26. g
[4]; G2 1 mg/kg q7dX4, day 27
  Mean body weight: 25. g
[4]; G2 1 mg/kg q7dX4, day 28
  Mean body weight: 25. g
[4]; G2 1 mg/kg q7dX4, day 29
  Mean body weight: 25. g
[4]; G3 0.3 mg/kg q7dX4, day 1
  Mean body weight: 2 g
[4]; G3 0.3 mg/kg q7dX4, day 2
  Mean body weight: 2 g
[4]; G3 0.3 mg/kg q7dX4, day 3
  Mean body weight: 2 g
[4]; G3 0.3 mg/kg q7dX4, day 4
  Mean body weight: 2 g
[4]; G3 0.3 mg/kg q7dX4, day 5
  Mean body weight: 2 g
[4]; G3 0.3 mg/kg q7dX4, day 6
  Mean body weight: 2 g
[4]; G3 0.3 mg/kg q7dX4, day 7
  Mean body weight: 2 g
[4]; G3 0.3 mg/kg q7dX4, day 8
  Mean body weight: 2 g
[4]; G3 0.3 mg/kg q7dX4, day 9
  Mean body weight: 2 g
[4]; G3 0.3 mg/kg q7dX4, day 10
  Mean body weight: 2 g
[4]; G3 0.3 mg/kg q7dX4, day 11
  Mean body weight: 2 g
[4]; G3 0.3 mg/kg q7dX4, day 12
  Mean body weight: 2 g
[4]; G3 0.3 mg/kg q7dX4, day 13
  Mean body weight: 2 g
[4]; G3 0.3 mg/kg q7dX4, day 14
  Mean body weight: 2 g
[4]; G3 0.3 mg/kg q7dX4, day 15
  Mean body weight: 2 g
[4]; G3 0.3 mg/kg q7dX4, day 16
  Mean body weight: 2 g
[4]; G3 0.3 mg/kg q7dX4, day 17
  Mean body weight: 2 g
[4]; G3 0.3 mg/kg q7dX4, day 18
  Mean body weight: 2 g
[4]; G3 0.3 mg/kg q7dX4, day 19
  Mean body weight: 2 g
[4]; G3 0.3 mg/kg q7dX4, day 20
  Mean body weight: 2 g
[4]; G3 0.3 mg/kg q7dX4, day 21
  Mean body weight: 2 g
[4]; G3 0.3 mg/kg q7dX4, day 22
  Mean body weight: 2 g
[4]; G3 0.3 mg/kg q7dX4, day 23
  Mean body weight: 2 g
[4]; G3 0.3 mg/kg q7dX4, day 24
  Mean body weight: 2 g
[4]; G3 0.3 mg/kg q7dX4, day 25
  Mean body weight: 2 g
[4]; G3 0.3 mg/kg q7dX4, day 26
  Mean body weight: 2 g
[4]; G3 0.3 mg/kg q7dX4, day 27
  Mean body weight: 2 g
[4]; G3 0.3 mg/kg q7dX4, day 28
  Mean body weight: 2 g
[4]; G3 0.3 mg/kg q7dX4, day 29
  Mean body weight: 2 g
[4]; group G1 3 mg/kg q7d×4
  body weight / growth pattern: decreased body weight after first treatment then they showed normal growth pattern
[4]; group G1 3 mg/kg q7d×4, day 2
  Percentage Body weight change: −3.2%
[4]; group G2 1 mg/kg q7d×4
  body weight / growth pattern: normal growth pattern throughout the experimental period
  body weight gain compared to other treatment groups: maximum body weight gain
[4]; group G3 0.3 mg/kg q7d×4
  body weight / growth pattern: decreased body weight after first treatment then they showed normal growth pattern
  body weight gain as compared to group G1: marginal body weight gain
[4]; group G3 0.3 mg/kg q7d×4, day 3
  Percentage Body weight change: −3.8%
